Source: PMC12377202, “Design, synthesis, and cytotoxic evaluation of quinazoline-based derivatives as VEGER-2 inhibitors: comparative study against EGFR kinase activity, induction of apoptosis, and molecular docking study” (RSC Advances, 2025)

Assays:
VEGFR-2 = VEGFR-2 (Homo sapiens, UniProt P35968); assay: In vitro VEGFR-2 inhibitory assay (ELISA kit); settings: VEGFR-2 kinase
EGFR = EGFR (Homo sapiens, UniProt P00533); assay: EGFR kinase inhibition assay (ELISA kit)
MCF-7 = assay: MTT anti-proliferative assay, MCF-7; assay type: cell-based, human; settings: Homo sapiens, MCF7
HepG-2 cells = assay: Cell cycle analysis (PI staining, flow cytometry); assay type: cell-based, human
Protocol: In order to cause cytotoxicity, anticancer medicines must stop cell division at specific checkpoints, which are discrete stages of the cell cycle.
Propidium iodide (PI) staining and flow cytometry analysis[74,75] were used to analyze the cell cycle for derivatives 8a and 9a, as illustrated in the SI.
(§1) through Flow cytometric analysis.
(§2) Pellets were collected again and incubated with
(§3) Total RNA from vehicle-treated
(§4) (Thermo Scientific, USA).
(§5) All experiments were performed in […]

TNF-alpha = TNF-alpha level in HepG-2 cells; assay type: cell-based, human; settings: control 43.48
Protocol: (§6) All synthesized compounds were tested at their cytotoxic concentrations in HepG-2 cells for analysis of gene expression levels of apoptotic markers caspase-3, caspase-9, TNF-α, and IL-6 proteins, and only two active compounds were tested for BAX and Bcl-2 proteins.
as §1, §2, §3, §4, §5

K-562 = assay: MTT anti-proliferative assay, K-562; assay type: cell-based, human; settings: Homo sapiens, K562
caspase-9 = assay: Caspase-9 expression level in HepG-2 cells; assay type: cell-based, human; settings: for Caspase-9 ± SE: HepG-2, at IC50 concentrations, control 11.01
Protocol: as §6, §1, §2, §3, §4, §5

IL-6R = IL-6R level in HepG-2 cells; assay type: cell-based, human
Protocol: as §6, §1, §2, §3, §4, §5

HepG-2 = assay: MTT anti-proliferative assay, HepG-2; assay type: cell-based, human; settings: Homo sapiens, HepG2
HEK-293 = assay: MTT cytotoxicity against normal cells; assay type: cell-based, human
[1] = MTT cytotoxicity against normal cells; assay type: cell-based, human; settings: human
caspase-3 = assay: Caspase-3 expression level in HepG-2 cells; assay type: cell-based, human; settings: for Caspase-3 ± SE: HepG-2, at IC50 concentrations, control 0.460
Protocol: as §6, §1, §2, §3, §4, §5

Sequence of VEGFR-2 (P35968 20-1356): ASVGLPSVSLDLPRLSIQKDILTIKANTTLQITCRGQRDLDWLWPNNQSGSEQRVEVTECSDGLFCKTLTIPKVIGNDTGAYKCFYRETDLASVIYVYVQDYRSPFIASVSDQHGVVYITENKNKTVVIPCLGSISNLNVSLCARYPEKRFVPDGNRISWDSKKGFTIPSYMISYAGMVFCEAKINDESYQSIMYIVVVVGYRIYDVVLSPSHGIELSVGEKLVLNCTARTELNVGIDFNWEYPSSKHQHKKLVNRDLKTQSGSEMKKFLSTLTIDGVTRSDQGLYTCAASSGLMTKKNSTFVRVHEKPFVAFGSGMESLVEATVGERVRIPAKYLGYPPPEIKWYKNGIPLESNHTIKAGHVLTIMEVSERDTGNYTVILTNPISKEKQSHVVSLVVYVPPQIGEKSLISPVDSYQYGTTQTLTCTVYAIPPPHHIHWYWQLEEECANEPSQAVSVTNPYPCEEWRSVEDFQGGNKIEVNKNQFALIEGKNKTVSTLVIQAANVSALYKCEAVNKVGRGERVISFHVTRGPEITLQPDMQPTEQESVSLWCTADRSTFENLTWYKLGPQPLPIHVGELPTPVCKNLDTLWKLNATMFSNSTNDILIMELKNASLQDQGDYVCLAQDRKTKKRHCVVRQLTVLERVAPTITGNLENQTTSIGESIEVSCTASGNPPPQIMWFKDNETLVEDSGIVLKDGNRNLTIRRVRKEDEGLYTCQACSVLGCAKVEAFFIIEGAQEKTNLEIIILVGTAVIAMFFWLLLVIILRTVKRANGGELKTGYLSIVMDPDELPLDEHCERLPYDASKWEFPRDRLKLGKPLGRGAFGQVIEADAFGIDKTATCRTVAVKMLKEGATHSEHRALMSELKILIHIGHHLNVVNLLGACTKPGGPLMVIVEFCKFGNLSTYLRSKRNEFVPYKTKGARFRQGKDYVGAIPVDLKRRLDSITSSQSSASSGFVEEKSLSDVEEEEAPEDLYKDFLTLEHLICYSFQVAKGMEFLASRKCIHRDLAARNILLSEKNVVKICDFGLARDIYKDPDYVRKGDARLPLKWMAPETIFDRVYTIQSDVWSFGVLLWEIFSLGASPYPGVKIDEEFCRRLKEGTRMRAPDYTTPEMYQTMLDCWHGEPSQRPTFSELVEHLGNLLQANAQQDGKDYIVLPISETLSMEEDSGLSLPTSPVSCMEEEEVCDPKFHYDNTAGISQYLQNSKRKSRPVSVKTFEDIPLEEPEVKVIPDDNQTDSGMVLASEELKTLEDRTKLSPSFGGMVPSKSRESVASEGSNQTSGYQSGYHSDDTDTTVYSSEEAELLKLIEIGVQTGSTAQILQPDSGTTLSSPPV
Sequence of EGFR (P00533 25-1210): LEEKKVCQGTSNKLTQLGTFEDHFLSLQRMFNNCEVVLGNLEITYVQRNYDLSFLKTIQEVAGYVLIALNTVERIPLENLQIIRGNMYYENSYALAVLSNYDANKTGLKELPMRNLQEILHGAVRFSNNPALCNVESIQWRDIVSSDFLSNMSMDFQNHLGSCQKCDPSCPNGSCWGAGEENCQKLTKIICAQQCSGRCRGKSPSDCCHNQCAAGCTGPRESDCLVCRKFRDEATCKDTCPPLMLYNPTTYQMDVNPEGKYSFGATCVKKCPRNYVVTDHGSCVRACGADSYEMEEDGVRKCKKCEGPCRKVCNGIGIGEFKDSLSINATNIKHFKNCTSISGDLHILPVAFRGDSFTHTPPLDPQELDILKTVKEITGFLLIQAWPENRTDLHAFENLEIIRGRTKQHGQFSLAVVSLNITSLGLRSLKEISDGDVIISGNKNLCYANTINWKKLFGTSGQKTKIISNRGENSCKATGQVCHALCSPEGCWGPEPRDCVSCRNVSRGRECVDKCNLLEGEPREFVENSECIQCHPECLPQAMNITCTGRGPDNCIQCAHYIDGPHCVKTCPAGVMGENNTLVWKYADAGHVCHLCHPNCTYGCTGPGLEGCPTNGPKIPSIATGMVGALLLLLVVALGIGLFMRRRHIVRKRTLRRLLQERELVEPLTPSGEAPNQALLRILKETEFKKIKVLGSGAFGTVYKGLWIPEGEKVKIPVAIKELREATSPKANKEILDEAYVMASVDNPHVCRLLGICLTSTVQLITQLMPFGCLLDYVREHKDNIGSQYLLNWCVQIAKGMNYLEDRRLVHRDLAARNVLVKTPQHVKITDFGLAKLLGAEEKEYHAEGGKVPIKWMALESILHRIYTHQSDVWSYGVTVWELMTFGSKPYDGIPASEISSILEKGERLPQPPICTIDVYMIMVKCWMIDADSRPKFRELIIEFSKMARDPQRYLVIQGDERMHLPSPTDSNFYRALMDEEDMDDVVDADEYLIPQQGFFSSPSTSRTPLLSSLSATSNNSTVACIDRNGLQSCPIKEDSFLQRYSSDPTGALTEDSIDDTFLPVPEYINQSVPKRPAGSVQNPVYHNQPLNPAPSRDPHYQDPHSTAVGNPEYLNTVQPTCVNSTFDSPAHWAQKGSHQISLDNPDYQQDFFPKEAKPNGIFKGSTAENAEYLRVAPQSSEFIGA

- Activity % (VEGFR-2; HepG2): 33.564%
- Inhibition % (VEGFR-2; HepG2): 66.436%
- Activity % (VEGFR-2; K-562): 56.948%
- Inhibition % (VEGFR-2; K-562): 43.052%
- Activity % (VEGFR-2; MCF7): 80.680%
- Inhibition % (VEGFR-2; MCF7): 19.320%
- Activity % (EGFR; HepG2): 52.262%
- Inhibition % (EGFR; HepG2): 47.738%
- Activity % (EGFR; K-562): 47.456%
- Inhibition % (EGFR; K-562): 52.544%
- Activity % (EGFR; MCF7): 25.292%
- Inhibition % (EGFR; MCF7): 74.708%
SMILES: O=C(Cn1cnc2cc([N+](=O)[O-])ccc2c1=O)Nc1ccccc1Cl [9b, N-(2-Chlorophenyl)-2-(7-nitro-4-oxoquinazolin-3(4H)-yl)acetamide]
- viability at 0.195 µmol (MCF-7; MCF-7, 0.195 umol): 52.1%
- cytotoxicity at 0.195 µmol (MCF-7; MCF-7, 0.195 umol, read-out: Toxicity %): 47.9%
- viability at 0.391 µmol (MCF-7; MCF-7, 0.391 umol): 22.7%
- cytotoxicity at 0.391 µmol (MCF-7; MCF-7, 0.391 umol, read-out: Toxicity %): 77.3%
- viability at 0.781 µmol (MCF-7; MCF-7, 0.781 umol): 15.6%
- cytotoxicity at 0.781 µmol (MCF-7; MCF-7, 0.781 umol, read-out: Toxicity %): 84.4%
- viability at 1.563 µmol (MCF-7; MCF-7, 1.563 umol): 11.9%
- cytotoxicity at 1.563 µmol (MCF-7; MCF-7, 1.563 umol, read-out: Toxicity %): 88.1%
- viability at 3.125 µmol (MCF-7; MCF-7, 3.125 umol): 9.45%
- cytotoxicity at 3.125 µmol (MCF-7; MCF-7, 3.125 umol, read-out: Toxicity %): 90.5%
- viability at 6.25 µmol (MCF-7; MCF-7, 6.25 umol): 8%
- cytotoxicity at 6.25 µmol (MCF-7; MCF-7, 6.25 umol, read-out: Toxicity %): 92%
- viability at 12.5 µmol (MCF-7; MCF-7, 12.5 umol): 7.26%
- cytotoxicity at 12.5 µmol (MCF-7; MCF-7, 12.5 umol, read-out: Toxicity %): 92.7%
- viability at 25 µmol (MCF-7; MCF-7, 25 umol): 6.77%
- cytotoxicity at 25 µmol (MCF-7; MCF-7, 25 umol, read-out: Toxicity %): 93.2%
- IC50 (MCF-7; MTT, MCF-7, read-out: Cytotoxicity against cancer cells IC50 MCF-7): 209 ± 3.7 nM
- % Sub-G1 (HepG-2 cells; HepG-2, cytotoxic concentration, 24 h, control 68.12): 94.68%
- % S (HepG-2 cells; HepG-2, control 2.23): 0.19%
- % G2/M (HepG-2 cells; HepG-2, control 6.52): 0.24%
- % G1 (HepG-2 cells; HepG-2, control 23.14): 4.89%
- TNF-alpha ±SE (TNF-alpha; HepG-2, at IC50 concentrations): 27.34 ± 1.95 ng/L
- TNF-alpha ±SE (TNF-alpha; raw data, HepG2): 14.37 ng/L
- viability at 0.195 µmol (K-562; K-562, 0.195 umol): 47.5%
- cytotoxicity at 0.195 µmol (K-562; K-562, 0.195 umol, read-out: Toxicity %): 52.5%
- viability at 0.391 µmol (K-562; K-562, 0.391 umol): 37.8%
- cytotoxicity at 0.391 µmol (K-562; K-562, 0.391 umol, read-out: Toxicity %): 62.2%
- viability at 0.781 µmol (K-562; K-562, 0.781 umol): 25.5%
- cytotoxicity at 0.781 µmol (K-562; K-562, 0.781 umol, read-out: Toxicity %): 74.5%
- viability at 1.563 µmol (K-562; K-562, 1.563 umol): 13.6%
- cytotoxicity at 1.563 µmol (K-562; K-562, 1.563 umol, read-out: Toxicity %): 86.4%
- viability at 3.125 µmol (K-562; K-562, 3.125 umol): 8.05%
- cytotoxicity at 3.125 µmol (K-562; K-562, 3.125 umol, read-out: Toxicity %): 92%
- viability at 6.25 µmol (K-562; K-562, 6.25 umol): 8.5%
- cytotoxicity at 6.25 µmol (K-562; K-562, 6.25 umol, read-out: Toxicity %): 91.5%
- viability at 12.5 µmol (K-562; K-562, 12.5 umol): 6.86%
- cytotoxicity at 12.5 µmol (K-562; K-562, 12.5 umol, read-out: Toxicity %): 93.1%
- viability at 25 µmol (K-562; K-562, 25 umol): 6.2%
- cytotoxicity at 25 µmol (K-562; K-562, 25 umol, read-out: Toxicity %): 93.8%
- IC50 (K-562; MTT, K-562, read-out: Cytotoxicity against cancer cells IC50 K-562): 190 ± 3.7 nM
- Caspase-9 ± SE (caspase-9): 7.31 ± 0.93 ng/L
- Caspase-9 ± SE (caspase-9; listed as N5): 7.31 ng/L
- caspase-9 expression level, fold increase (caspase-9; HepG-2, vs control cells): no apoptotic effect
- IL-6R ± SE (IL-6R; HepG-2, at IC50 concentrations, control 44.10): 28.78 ± 1.23 ng/L
- IL-6R protein level (IL-6R; HepG-2, control 44.10%): 28.78 ng/L
- IL-6 ±SE (IL-6R; raw data, HepG2, control 44.10): 19.54 ng/L
- viability at 0.195 µg/mL (HepG-2; HepG-2, 0.195 ug/ml): 49.7%
- cytotoxicity at 0.195 µg/mL (HepG-2; HepG-2, 0.195 ug/ml, read-out: Toxicity %): 50.3%
- viability at 0.391 µg/mL (HepG-2; HepG-2, 0.391 ug/ml): 37.3%
- cytotoxicity at 0.391 µg/mL (HepG-2; HepG-2, 0.391 ug/ml, read-out: Toxicity %): 62.7%
- viability at 0.781 µg/mL (HepG-2; HepG-2, 0.781 ug/ml): 27.7%
- cytotoxicity at 0.781 µg/mL (HepG-2; HepG-2, 0.781 ug/ml, read-out: Toxicity %): 72.3%
- viability at 1.563 µg/mL (HepG-2; HepG-2, 1.563 ug/ml): 13%
- cytotoxicity at 1.563 µg/mL (HepG-2; HepG-2, 1.563 ug/ml, read-out: Toxicity %): 87%
- viability at 3.125 µg/mL (HepG-2; HepG-2, 3.125 ug/ml): 9.93%
- cytotoxicity at 3.125 µg/mL (HepG-2; HepG-2, 3.125 ug/ml, read-out: Toxicity %): 90.1%
- viability at 6.25 µg/mL (HepG-2; HepG-2, 6.25 ug/ml): 7.8%
- cytotoxicity at 6.25 µg/mL (HepG-2; HepG-2, 6.25 ug/ml, read-out: Toxicity %): 92.2%
- viability at 12.5 µg/mL (HepG-2; HepG-2, 12.5 ug/ml): 6.7%
- cytotoxicity at 12.5 µg/mL (HepG-2; HepG-2, 12.5 ug/ml, read-out: Toxicity %): 93.3%
- viability at 25 µg/mL (HepG-2; HepG-2, 25 ug/ml): 5.93%
- cytotoxicity at 25 µg/mL (HepG-2; HepG-2, 25 ug/ml, read-out: Toxicity %): 94.1%
- IC50 (HepG-2; MTT, HepG-2, read-out: Cytotoxicity against cancer cells IC50 HepG-2): 194 ± 6.6 nM
- Toxicity % (HEK-293; HEK-293, 0.195 umol/ml): 1.903%
- Toxicity % (HEK-293; HEK-293, 0.391 umol/ml): 23.13%
- Toxicity % (HEK-293; HEK-293, 0.781 umol/ml): 37.87%
- Toxicity % (HEK-293; HEK-293, 1.563 umol/ml): 47.29%
- Toxicity % (HEK-293; HEK-293, 3.125 umol/ml): 70.33%
- Toxicity % (HEK-293; HEK-293, 6.25 umol/ml): 82.82%
- Toxicity % (HEK-293; HEK-293, 12.5 umol/ml): 91.22%
- Toxicity % (HEK-293; HEK-293, 25 umol/ml): 93.7%
- selectivity, cancer cells vs normal human kidney cells (fold) (HEK-293; HEK-293 vs K-562): 9 fold
- selectivity, cancer cells vs normal human kidney cells (fold) (HEK-293; HEK-293 vs MCF-7): 8.4 fold
- IC50 (HEK-293; Homo sapiens, HEK293, raw data, HEK-293): 1750 nM
- IC50 at 3 days ([1]; HEK-293 cells (normal human embryonic kidney cells), MTT, HEK-293, read-out: Cytotoxicity against normal cell IC50 HEK-293): 1747 ± 2.6 nM
- viability at 3 days, 0.195 umol/ml ([1]; HEK-293 cells (normal human embryonic kidney), HEK-293, 0.195 umol/ml): 98.1%
- viability at 3 days, 0.391 umol/ml ([1]; HEK-293 cells (normal human embryonic kidney), HEK-293, 0.391 umol/ml): 76.9%
- viability at 3 days, 0.781 umol/ml ([1]; HEK-293 cells (normal human embryonic kidney), HEK-293, 0.781 umol/ml): 62.1%
- viability at 3 days, 1.563 umol/ml ([1]; HEK-293 cells (normal human embryonic kidney), HEK-293, 1.563 umol/ml): 52.7%
- viability at 3 days, 3.125 umol/ml ([1]; HEK-293 cells (normal human embryonic kidney), HEK-293, 3.125 umol/ml): 29.7%
- viability at 3 days, 6.25 umol/ml ([1]; HEK-293 cells (normal human embryonic kidney), HEK-293, 6.25 umol/ml): 17.2%
- viability at 3 days, 12.5 umol/ml ([1]; HEK-293 cells (normal human embryonic kidney), HEK-293, 12.5 umol/ml): 8.78%
- viability at 3 days, 25 umol/ml ([1]; HEK-293 cells (normal human embryonic kidney), HEK-293, 25 umol/ml): 6.3%
- Caspase-3 ± SE (caspase-3): 1.08 ± 0.028 ng/mL
- Caspase-3 ± SE (caspase-3; listed as N5): 1.08 ng/mL
- caspase-3 expression level, fold increase (caspase-3; HepG-2, vs control cells): 2.35 fold
